# Legend:
# [1] = rat, in vivo
# Procedure: Acamprosate or acamprosate prodrug was administered by oral gavage to groups of four to six adult male Sprague-Dawley rats (about 250 g). Animals were conscious at the time of the experiment. Acamprosate or acamprosate prodrug was orally (po) or colonically (ic) administered in 3.4% Phosal or 5% Phosal (53 MCT in 7.5% Tween 80 in 50 mM sodium phosphate buffer, pH 6.8) at a dose of 70 mg-equivalents acamprosate per kg body weight.
# The percent relative bioavailability (F %) of acamprosate was determined by comparing the area under the acamprosate concentration vs time curve (AUC) following oral or colonic administration of an acamprosate prodrug or acamprosate with the AUC of the acamprosate concentration vs time curve following intravenous administration of acamprosate on a dose normalized basis.
# [2] = cited from earlier work
# cocaine conditioned mice = conditions: 100 mg/kg for 3 days; cited from earlier work
# [3] = tested on: patients with alcohol dependence; conditions: patients with alcohol dependence abstinent at initiation of treatment; cited from earlier work
# individual patients = conditions: doses from about 1,000 mg/day to about 2,000 mg/day; cited from earlier work
# [4] = tested on: patients being treated for alcohol withdrawal; conditions: cited from earlier work
compound,measurement,setting,value
"CC(=O)NCCCS(=O)(=O)OCC(C)(C)[C@@H]1COC(=O)O1 [Compound 12, 2-((4R)-2-Oxo(1,3-dioxolan-4-yl))-2-methylpropyl[3-(acetylamino)propyl]sulfonate]",acamprosate colonic bioavailability relative to the acamprosate colonic bioavailability of an equivalent dose of acamprosate itself,[1],at least 5 times
"CC(=O)NCCCS(=O)(=O)O [acamprosate, 3-(Acetylamino)propylsulfonic acid]",steady-state plasma concentration,[2]; doses of about 1-2 gm per day,370 to 640 ng/mL
same,time post-dose at which steady-state plasma concentration occurs,[2]; doses of about 1-2 gm per day,3 to 8 h
same,oral bioavailability,"[2]; humans, oral",about 11%
same,effect on relapse-like behavior,cocaine conditioned mice,attenuated relapse-like behavior
same,maintaining abstinence from alcohol,[3],effective for maintaining abstinence from alcohol
same,"treatment of tardive dyskinesia, dystonia, and tic",individual patients,"effective in treating tardive dyskinesia, dystonia, and tic"
same,effect on sleep,[4],improve sleep
"CC(=O)NCCCS(=O)(=O)OCC1(C)CCC(=O)O1 (racemic) [Compound 6, rac-(2-Methyl-5-oxo-2-2,3,4-trihydrofuryl)methyl [3-(acetylamino)propyl]sulfonate]",melting point,,63.1 to 64.8 °C

# From US20090099253A1, “Internally Masked Neopentyl Sulfonyl Ester Cyclization Release Prodrugs of Acamprosate, Compositions Thereof, and Methods of Use” (XenoPort, Inc., priority 2007, published 2009)
